Values belong to the molecule of their own block, whether it stands above or below them. Calls of active or inactive are those of the source. No cut-off for these calls is given here.
What was measured:
Escherichia coli [1] = experiment: Induction of Escherichia coli supercoiled pUC19 DNA cleavage at 240 uM after 24 hrs by agarose gel electrophoresis
[2] = Cytotoxicity against human NCI60 cells assessed as cell growth relative to control; assay type: functional; set-up: concentration or dose not given beside the values
[3] = Induction of ROS level in anhydrous acetonitrile electrolyte assessed as second half wave redox potential at 2 mM using Ag/AgCl reference electrode by cyclic voltammetry; assay type: physicochemical; conditions: 2000 µM
[4] = Induction of ROS level in anhydrous acetonitrile electrolyte assessed as first half wave redox potential at 2 mM using Ag/AgCl reference electrode by cyclic voltammetry; assay type: physicochemical; conditions: 2000 µM
A549 [5] = experiment: Growth inhibition of human A549 cells assessed as reduction in cell viability after 48 hrs by MTT assay; assay type: functional, cell-based; conditions: A549, 48 h
Escherichia coli [6] = experiment: Induction of Escherichia coli supercoiled pUC19 DNA cleavage assessed as appearance of nicked supercoiled DNA after 24 hrs by agarose gel electrophoresis in absence of transition metal complex, light irradiation or oxidative reagent
[7] = Induction of ROS level assessed as half reduction potential using Ag/AgCl reference electrode by cyclic voltammetry; assay type: physicochemical
[8] = Induction of ROS level assessed as half reduction potential using saturated calomel electrode by cyclic voltammetry; assay type: physicochemical
A549 [9] = experiment: Induction of apoptosis in human A549 cells assessed as increase in ROS level at 100 uM after 4 hrs by DCFH-DA staining based flow cytometry relative to control; assay type: functional
A549 [10] = experiment: Induction of apoptosis in human A549 cells assessed as increase in ROS level at 10 uM after 4 hrs by DCFH-DA staining based flow cytometry relative to control; assay type: functional
A549 [11] = experiment: Induction of mitochondrial membrane potential loss in human A549 cells at 100 uM after 24 hrs by rhodamine 123 staining based flow cytometry (reference value: 1.7%); assay type: functional
A549 [12] = experiment: Induction of mitochondrial membrane potential loss in human A549 cells at 10 uM after 24 hrs by rhodamine 123 staining based flow cytometry (reference value: 1.7%); assay type: functional
A549 [13] = experiment: Induction of apoptosis in human A549 cells assessed as increase in ROS level at 10 to 100 nM after 4 hrs by DCFH-DA staining based flow cytometry; assay type: functional, cell-based
A549 [14] = experiment: Induction of mitochondrial membrane potential loss in human A549 cells at 1 uM after 24 hrs by rhodamine 123 staining based flow cytometry (reference value: 1.7%); assay type: functional
A549 [15] = experiment: Reduction of glutathione in human A549 cells assessed as glutathione level after 48 hrs by fluorometric assay; assay type: functional, cell-based
A549 [16] = experiment: Induction of apoptosis in human A549 cells assessed as apoptotic cells at 1 uM after 24 hrs by Annexin V/propidium iodide staining based flow cytometry (reference value: 7.7%); assay type: functional
A549 [17] = experiment: Cell cycle arrest in human A549 cells assessed as accumulation at sub G1 phase at 0.01 to 100 uM after 24 hrs by propidium idoide staining based flow cytometry; assay type: functional
A549 [18] = experiment: Cell cycle arrest in human A549 cells assessed as accumulation at S phase at 0.01 to 100 uM after 24 hrs by propidium idoide staining based flow cytometry; assay type: functional
A549 [19] = experiment: Cell cycle arrest in human A549 cells assessed as accumulation at G2 phase at 0.01 to 100 uM after 24 hrs by propidium idoide staining based flow cytometry; assay type: functional
A549 [20] = experiment: Reduction of glutathione level in human A549 cells at 1 uM after 48 hrs by fluorometric assay; assay type: functional; set-up: scale not given: the % may be the effect or the level left
A549 [21] = experiment: Reduction of glutathione level in human A549 cells at 10 uM after 48 hrs by fluorometric assay; assay type: functional; set-up: scale not given: the % may be the effect or the level left
A549 [22] = experiment: Induction of apoptosis in human A549 cells assessed as mitochondrial membrane damage at 100 uM after 24 hrs by microscopy; assay type: functional, cell-based
[23] = Growth inhibition of human […] cells assessed as reduction in cell viability after 48 hrs by MTT assay; assay type: cell-based
A549 [24] = experiment: Induction of apoptosis in human A549 cells assessed as cell shrinkage at 1 to 100 uM after 24 hrs by microscopy; assay type: functional, cell-based
A549 [25] = experiment: Induction of apoptosis in human A549 cells assessed as apoptotic cells at 10 uM after 24 hrs by Annexin V/propidium iodide staining based flow cytometry (reference value: 7.7%); assay type: functional
A549 [26] = experiment: Reduction of glutathione level in human A549 cells at 0.1 uM after 48 hrs by fluorometric assay; assay type: functional; set-up: scale not given: the % may be the effect or the level left
A549 [27] = experiment: Reduction of glutathione level in human A549 cells at 100 uM after 48 hrs by fluorometric assay; assay type: functional; set-up: scale not given: the % may be the effect or the level left
A549 [28] = experiment: Induction of apoptosis in human A549 cells assessed as apoptotic cells at 100 uM after 24 hrs by Annexin V/propidium iodide staining based flow cytometry (reference value: 7.7%); assay type: functional
A549 [29] = experiment: Induction of alteration in mitochondrial membrane potential in human A549 cells after 24 hrs by rhodamine 123 staining based flow cytometry; assay type: functional, cell-based
A549 [30] = experiment: Induction of apoptosis in human A549 cells assessed as nuclear condensation at 100 uM after 24 hrs by microscopy; assay type: functional, cell-based
A549 [31] = experiment: Cell cycle arrest in human A549 cells assessed as accumulation at G1 phase at 0.01 to 100 uM after 24 hrs by propidium idoide staining based flow cytometry; assay type: functional
A549 [32] = experiment: Induction of apoptosis in human A549 cells assessed as apoptotic cells at 0.1 uM after 24 hrs by Annexin V/propidium iodide staining based flow cytometry (reference value: 7.7%); assay type: functional
A549 [33] = experiment: Induction of apoptosis in human A549 cells assessed as apoptotic cells at 0.01 uM after 24 hrs by Annexin V/propidium iodide staining based flow cytometry (reference value: 7.7%); assay type: functional
A549 [34] = experiment: Induction of mitochondrial membrane potential loss in human A549 cells at 10 to 100 nM after 24 hrs by rhodamine 123 staining based flow cytometry (reference value: 1.7%); assay type: functional
A549 [35] = experiment: Selectivity index, ratio of IC50 for human […] cells to IC50 for human A549 cells; assay type: functional

Structure (SMILES): C[n+]1nn(-c2ccc(C(F)(F)F)cc2)c2c1C(=O)c1ccccc1C2=O.O=S(=O)([O-])C(F)(F)F
Activity (Escherichia coli [1]): Active
Activity [2]: 58.69%
Activity [3]: -823.5 mV
Activity [4]: -130.5 mV

Structure (SMILES): C[n+]1nn(-c2ccc(F)cc2)c2c1C(=O)c1ccccc1C2=O.O=S(=O)([O-])C(F)(F)F
Activity (Escherichia coli [1]): Active
Activity [2]: 43.38%
Activity [3]: -886 mV
Activity [4]: -156.5 mV

Structure (SMILES): C[n+]1nn(-c2ccccc2)c2c1C(=O)c1ccccc1C2=O.O=S(=O)([O-])C(F)(F)F
Activity (Escherichia coli [6]): Dose-dependent effect
Activity [2]: -10.18%
Activity [3]: -866.5 mV
Activity [4]: -163.5 mV

Structure (SMILES): COC1=C(OC)C(=O)C(C/C=C(\C)CC/C=C(\C)CC/C=C(\C)CC/C=C(\C)CC/C=C(\C)CC/C=C(\C)CC/C=C(\C)CC/C=C(\C)CC/C=C(\C)CCC=C(C)C)=C(C)C1=O [UBIDECARENONE]
Activity [7]: -567 mV
Activity [8]: -602 mV

Structure (SMILES): CCCCCCCCn1n[n+](C)c2c1C(=O)c1ccccc1C2=O.O=S(=O)([O-])C(F)(F)F
Activity (A549 [9]): 177%
IC50 (A549 [5]): 83.3 µM
Activity (A549 [10]): 108%
Activity (A549 [11]): 50%
Activity (A549 [12]): 25%

Structure (SMILES): C[n+]1nn(-c2ccc(Cl)cc2)c2c1C(=O)c1ccccc1C2=O.O=S(=O)([O-])C(F)(F)F
Activity (Escherichia coli [1]): Active
Activity [2]: 101.7%
Activity [3]: -842.5 mV
Activity [4]: -148.5 mV

Second part, led by results:

Activity (Escherichia coli [1]): Active
Activity [3]: -881.5 mV
Activity [4]: -176 mV
Structure (SMILES): Cc1ccc(-n2n[n+](C)c3c2C(=O)c2ccccc2C3=O)cc1.O=S(=O)([O-])C(F)(F)F
Activity [2]: 11.53%

Activity (Escherichia coli [1]): Active
Activity [3]: -885.5 mV
Activity [4]: -182 mV
Structure (SMILES): COc1ccc(-n2n[n+](C)c3c2C(=O)c2ccccc2C3=O)cc1OC.O=S(=O)([O-])C(F)(F)F
Activity [2]: -31.51%

Activity (Escherichia coli [1]): Active
Activity [3]: -867 mV
Activity [4]: -168 mV
Structure (SMILES): COc1cc(-n2n[n+](C)c3c2C(=O)c2ccccc2C3=O)cc(OC)c1OC.O=S(=O)([O-])C(F)(F)F
Activity [2]: 23.23%

Activity (Escherichia coli [1]): Active
Activity [3]: -762 mV
Activity [4]: -182.5 mV
Structure (SMILES): COc1cc(OC)cc(-n2n[n+](C)c3c2C(=O)c2ccccc2C3=O)c1.O=S(=O)([O-])C(F)(F)F
Activity [2]: -27.06%

IC50 (A549 [5]): 3.9 µM
Structure (SMILES): COc1cc([C@@H]2c3cc4c(cc3[C@@H](O[C@@H]3O[C@@H]5CO[C@@H](C)O[C@H]5[C@H](O)[C@H]3O)[C@H]3COC(=O)[C@H]23)OCO4)cc(OC)c1O [ETOPOSIDE]

IC50 (A549 [5]): 4.2 µM
Activity (Escherichia coli [1]): Active
Activity [3]: -885 mV
Activity [4]: -182.5 mV
Structure (SMILES): COc1ccc(-n2n[n+](C)c3c2C(=O)c2ccccc2C3=O)cc1.O=S(=O)([O-])C(F)(F)F
Activity (A549 [9]): 226%
Activity (A549 [13]): inactive
Activity (A549 [14]): 4.1%
Activity (A549 [15]): Dose-dependent effect
Activity (A549 [16]): 11.07%
Activity (A549 [17]): inactive
Activity (A549 [10]): 133%
Activity (A549 [18]): inactive
Activity (A549 [19]): inactive
Activity (A549 [20]): 88.76%
Activity (A549 [21]): 23.87%
Activity (A549 [22]): Active
Activity (A549 [11]): 88.05%
IC50 [23]: 35 µM
Activity (A549 [24]): Active
Activity (A549 [25]): 35.44%
Activity [2]: -24.7%
Activity (A549 [26]): 99.35%
Activity (A549 [27]): 12.13%
Activity (A549 [28]): 61.28%
Activity (A549 [29]): Dose-dependent effect
Activity (A549 [30]): Active
Activity (A549 [31]): inactive
Activity (A549 [32]): 11.06%
Activity (A549 [12]): 51.4%
Activity (A549 [33]): 8.74%
Activity (A549 [34]): 2.55%
Ratio IC50 (A549 [35]): 8
